Source: US11459318B2, “Pesticidally active pyrrole derivatives” (Syngenta Participations AG, priority 2017, dated 2022)

Legend:
Format in all cases: in vivo
[1] = test system: Diabrotica balteata (Corn root worm); test: Diabrotica balteata (Corn root worm), maize sprouts sprayed, L2 larvae mortality; settings: 96 h, application rate of 200 ppm, L2 larvae on maize sprouts, assessed 4 days after infestation, read-out: control (mortality)
Experimental: Diabrotica balteata (Corn root worm):
Maize sprouts placed onto an agar layer in 24-well microtiter plates were treated with aqueous test solutions prepared from 10,000 ppm DMSO stock solutions by spraying. After drying, the plates were infested with L2 larvae (6 to 10 per well). The samples were assessed for mortality 4 days after infestation.

[2] = test system: Spodoptera littoralis (Egyptian cotton leaf worm); test: Spodoptera littoralis (Egyptian cotton leaf worm): Feeding/contact activity; settings: foliar, 72 h, application rate of 200 ppm, L1 larvae on cotton leaf discs, assessed 3 days after infestation, read-out: control (mortality)
Experimental: Spodoptera littoralis (Egyptian cotton leaf worm): Feeding/contact activity Cotton leaf discs were placed onto agar in 24-well microtiter plates and sprayed with aqueous test solutions prepared from 10,000 ppm DMSO stock solutions. After drying the leaf discs were infested with five L1 larvae. The samples were assessed for mortality 3 days after infestation.

[3] = test system: Plutella xylostella (Diamond back moth); test: Plutella xylostella (Diamond back moth): Feeding/contact activity; settings: 120 h, application rate of 200 ppm, L2 larvae on artificial diet, assessed 5 days after infestation, read-out: control (mortality)
Experimental: Plutella xylostella (Diamond back moth): Feeding/contact activity
24-well microtiter plates with artificial diet were treated with aqueous test solutions prepared from 10,000 ppm DMSO stock solutions by pipetting. After drying, the plates were infested with L2 larvae (10 to 15 per well). The samples were assessed for mortality 5 days after infestation.

[4] = test system: Tetranychus urticae (Two-spotted spider mite); test: Tetranychus urticae (Two-spotted spider mite): Feeding/contact activity; settings: foliar, 192 h, application rate of 200 ppm, mite population of mixed ages (mobile stages) on bean leaf discs, assessed 8 days after infestation, read-out: control (mortality)
Experimental: Tetranychus urticae (Two-spotted spider mite): Feeding/contact activity
Bean leaf discs on agar in 24-well microtiter plates were sprayed with aqueous test solutions prepared from 10,000 ppm DMSO stock solutions. After drying the leaf discs were infested with a mite population of mixed ages. The samples were assessed for mortality on mixed population (mobile stages) 8 days after infestation.

[5] = test system: Myzus persicae (Green peach aphid); test: Myzus persicae (Green peach aphid): Feeding/Contact activity; settings: foliar, 144 h, application rate of 200 ppm, aphid population of mixed ages on sunflower leaf discs, assessed 6 days after infestation, read-out: control (mortality)
Experimental: Myzus persicae (Green peach aphid): Feeding/Contact activity Sunflower leaf discs were placed onto agar in a 24-well microtiter plate and sprayed with aqueous test solutions prepared from 10,000 ppm DMSO stock solutions. After drying, the leaf discs were infested with an aphid population of mixed ages. The samples were assessed for mortality 6 days after infestation.

[6] = test system: Euschistus heros (Neotropical Brown Stink Bug); test: Euschistus heros (Neotropical Brown Stink Bug): Feeding/contact activity; settings: 120 h, application rate of 200 ppm, N2 nymphs on soybean leaves, assessed 5 days after infestation, read-out: control (mortality)
Experimental: Euschistus heros (Neotropical Brown Stink Bug): Feeding/contact activity Soybean leaves on agar in 24-well microtiter plates were sprayed with aqueous test solutions prepared from 10,000 ppm DMSO stock solutions. After drying the leaves were infested with N2 nymphs. The samples were assessed for mortality 5 days after infestation.

[7] = test system: Thrips tabaci (Onion Thrips); test: Thrips tabaci (Onion Thrips): Feeding/Contact activity; settings: foliar, 144 h, application rate of 200 ppm, thrips population of mixed ages on sunflower leaf discs, assessed 6 days after infestation, read-out: control (mortality)
Experimental: Thrips tabaci (Onion Thrips): Feeding/Contact activity
Sunflower leaf discs were placed on agar in 24-well microtiter plates and sprayed with aqueous test solutions prepared from 10,000 ppm DMSO stock solutions. After drying the leaf discs were infested with a thrips population of mixed ages. The samples were assessed for mortality 6 days after infestation.

Measured: mortality at 200 ppm

CN(C(=O)c1cc(-c2cnn(-c3c(Br)cc(C(F)(C(F)(F)F)C(F)(F)F)n3C)c2)ccc1Cl)C1CC1 [Compound 4, 5-[1-[3-bromo-1-methyl-5-[1,2,2,2-tetrafluoro-1-(trifluoromethyl)ethyl]pyrrol-2-yl]pyrazol-4-yl]-2-chloro-N-cyclopropyl-N-methyl-benzamide]
not listed: [7]
≥ 80%: all other assays above

Cn1c(C(F)(C(F)(F)F)C(F)(F)F)cc(Br)c1-c1cc(-c2ccc(Cl)c(C(=O)NC3(C#N)CC3)c2)on1 [Compound 6, 5-[3-[3-bromo-1-methyl-5-[1,2,2,2-tetrafluoro-1-(trifluoromethyl)ethyl]pyrrol-2-yl]isoxazol-5-yl]-2-chloro-N-(1-cyanocyclopropyl)benzamide]
not listed: [7]
≥ 80%: all other assays above

Cn1c(C(F)(C(F)(F)F)C(F)(F)F)cc(C(F)(F)F)c1-n1cc(-c2ccc(Cl)c(C(=O)NC3(C#N)CC3)c2)cn1 [Compound 8, 2-chloro-N-(1-cyanocyclopropyl)-5-[1-[1-methyl-5-[1,2,2,2-tetrafluoro-1-(trifluoromethyl)ethyl]-3-(trifluoromethyl)pyrrol-2-yl]pyrazol-4-yl]benzamide]
not listed: [4] | [5]
≥ 80%: all other assays above

Cc1cc(C(F)(C(F)(F)F)C(F)(F)F)n(C)c1-n1cc(-c2ccc(Cl)c(C(=O)NC3(C#N)CC3)c2)cn1 [Compound 11, 2-chloro-N-(1-cyanocyclopropyl)-5-[1-[1,3-dimethyl-5-[1,2,2,2-tetrafluoro-1-(trifluoromethyl)ethyl]pyrrol-2-yl]pyrazol-4-yl]benzamide]
not listed: [5]
≥ 80%: all other assays above

COCn1c(C(F)(C(F)(F)F)C(F)(F)F)cc(Br)c1-n1cc(-c2ccc(Cl)c(C(=O)NC3(C#N)CC3)c2)cn1 [Compound 14, 5-[1-[3-bromo-1-(methoxymethyl)-5-[1,2,2,2-tetrafluoro-1-(trifluoromethyl)ethyl]pyrrol-2-yl]pyrazol-4-yl]-2-chloro-N-(1-cyanocyclopropyl)benzamide]
not listed: [7]
≥ 80%: all other assays above

Cn1c(SC(F)(F)F)c(Br)c(Br)c1-n1cc(-c2ccc(Cl)c(C(=O)NC3(C#N)CC3)c2)cn1 [Compound 16, 2-chloro-N-(1-cyanocyclopropyl)-5-[1-[3,4-dibromo-1-methyl-5-(trifluoromethylsulfanyl)pyrrol-2-yl]pyrazol-4-yl]benzamide]
not listed: [5] | [6]
≥ 80%: all other assays above

Cn1c(C(F)(c2cc(F)cc(F)c2)C(F)(F)F)cc(Br)c1-n1cc(-c2ccc(Cl)c(C(=O)NC3(C#N)CC3)c2)cn1 (centres unmarked) [Compound 17, 5-[1-[3-bromo-5-[1-(3,5-difluorophenyl)-1,2,2,2-tetrafluoro-ethyl]-1-methyl-pyrrol-2-yl]pyrazol-4-yl]-2-chloro-N-(1-cyanocyclopropyl)benzamide]
not listed: [5] | [6]
≥ 80%: all other assays above

CCN(C(=O)c1cc(-c2cnn(-c3c(Br)cc(C(F)(C(F)(F)F)C(F)(F)F)n3C)c2)ccc1Cl)C1CC1 [Compound 22, 5-[1-[3-bromo-1-methyl-5-[1,2,2,2-tetrafluoro-1-(trifluoromethyl)ethyl]pyrrol-2-yl]pyrazol-4-yl]-2-chloro-N-cyclopropyl-N-ethyl-benzamide]
not listed: [7]
≥ 80%: all other assays above

Cn1c(C(F)(C(F)(F)F)C(F)(F)F)cc(C(N)=S)c1-n1cc(-c2ccc(Cl)c(C(=O)NC3(C#N)CC3)c2)cn1 [Compound 23, 5-[1-[3-carbamothioyl-1-methyl-5-[1,2,2,2-tetrafluoro-1-(trifluoromethyl)ethyl]pyrrol-2-yl]pyrazol-4-yl]-2-chloro-N-(1-cyanocyclopropyl)benzamide]
not listed: [7]
≥ 80%: all other assays above

Cn1c(C(F)(c2cc(Cl)cc(Cl)c2)C(F)(F)F)cc(Cl)c1-n1cc(-c2ccc(Cl)c(C(=O)NC3(C#N)CC3)c2)cn1 (centres unmarked) [Compound 30, 2-chloro-5-[1-[3-chloro-5-[1-(3,5-dichlorophenyl)-1,2,2,2-tetrafluoro-ethyl]-1-methyl-pyrrol-2-yl]pyrazol-4-yl]-N-(1-cyanocyclopropyl)benzamide]
not listed: [4] | [5]
≥ 80%: all other assays above

Cn1c(C(F)(F)C(F)(F)F)cc(Cl)c1-n1cc(-c2ccc(Cl)c(C(=O)NC3(C#N)CC3)c2)cn1 [Compound 33]
not listed: [7]
≥ 80%: all other assays above

Cn1c(C(F)(C(F)(F)F)C(F)(F)F)cc(I)c1-n1cc(-c2ccc(Cl)c(C(=O)NC3(C#N)CC3)c2)cn1 [Compound 34, 2-chloro-N-(1-cyanocyclopropyl)-5-[1-[3-iodo-1-methyl-5-[1,2,2,2-tetrafluoro-1-(trifluoromethyl)ethyl]pyrrol-2-yl]pyrazol-4-yl]benzamide]
not listed: [5]
≥ 80%: all other assays above
